This is an account of results in PMC4705222, “Identification of a Catalase-Phenol Oxidase in Betalain Biosynthesis in Red Amaranth (Amaranthus cruentus)” (Frontiers in Plant Science, 2016).

Some results are limits rather than exact numbers.

Series [1] addresses T1, AcCATPO (Amaranthus cruentus, UniProt A0A2Z0PTH5).
T1 sequence (A0A2Z0PTH5 1-492): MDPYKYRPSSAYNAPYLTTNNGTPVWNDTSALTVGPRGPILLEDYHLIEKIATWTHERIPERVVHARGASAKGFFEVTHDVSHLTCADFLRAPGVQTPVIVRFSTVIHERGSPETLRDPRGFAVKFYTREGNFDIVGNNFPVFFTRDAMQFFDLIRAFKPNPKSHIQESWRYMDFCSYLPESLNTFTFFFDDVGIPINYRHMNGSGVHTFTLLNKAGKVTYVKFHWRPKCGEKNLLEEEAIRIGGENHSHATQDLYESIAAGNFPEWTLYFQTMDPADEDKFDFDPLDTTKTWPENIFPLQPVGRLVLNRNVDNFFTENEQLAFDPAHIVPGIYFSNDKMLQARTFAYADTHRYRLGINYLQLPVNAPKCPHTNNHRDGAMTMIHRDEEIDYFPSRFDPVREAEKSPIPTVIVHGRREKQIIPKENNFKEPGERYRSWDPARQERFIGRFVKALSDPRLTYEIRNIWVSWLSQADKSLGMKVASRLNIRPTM
The series is described as follows: catalase activity, H2O2 decrease at […] nm. The format is biochemical. Particulars: read-out: % inhibition at 1 mM.

Series [2] concerns the target T1, AcCATPO. As to the kind of experiment: monophenolase activity toward L-tyrosine, absorbance […] nm. Conditions: L-tyrosine substrate, 0.057 mM L-DOPA cofactor, no added CuSO4. The format is biochemical.
The target of series [3] is T1, AcCATPO. The format is biochemical.
For series [4], the target named is T1, AcCATPO. As to the kind of experiment: catalase activity, H2O2 decrease at […] nm. The format is biochemical. Conditions: not significant, H2O2 substrate (14 mM in standard assay), pH 7.0, 20 °C.
In series [5] the target is T1, AcCATPO. The series is described as follows: diphenolase activity toward L-DOPA, absorbance […] nm and in-gel staining. The format is biochemical. Conditions: 1 mM L-DOPA substrate, pH 8.0, 60 °C, chelator.
Series [6] has as its target T1, AcCATPO. As to the kind of experiment: monophenolase activity toward L-tyrosine, absorbance […] nm. It counts as biochemical. Particulars: L-tyrosine substrate, 0.057 mM L-DOPA cofactor, no added CuSO4, chelator.
Series [7] concerns the target T1, AcCATPO. The description is as above. The format is biochemical. Particulars: activation, not inhibition, L-tyrosine substrate, 0.057 mM L-DOPA cofactor, no added CuSO4.
Series [8] addresses T1, AcCATPO. The series is described as follows: diphenolase activity toward L-DOPA, absorbance […] nm and in-gel staining. It counts as biochemical. Conditions: activation, not inhibition, 1 mM L-DOPA substrate, pH 8.0, 60 °C.
Substrate in series [9]: N[C@@H](Cc1ccc(O)c(O)c1)C(=O)O
As to the kind of experiment: purified protein. The format is biochemical, Amaranthus cruentus. Particulars: diphenolase, pH 8.0, 60 °C.

Substrate in series [10]: N[C@@H](Cc1ccc(O)cc1)C(=O)O
The series is described as follows: purified protein. It counts as biochemical, Amaranthus cruentus. Conditions: monophenolase, 0.057 mM L-DOPA as cofactor, pH 8.0, 60 °C.

For orientation: inhibition means the relative decrease from the control value, in per cent. By Km is commonly meant the concentration of substrate that gives half-maximal velocity. A word on the Vmax: it is the rate approached at saturating substrate. The kcat is the number of substrate molecules converted per active site and unit of time at saturation. In general, kcat/Km refers to the turnover number divided by the Michaelis constant.

Take `NNC(=O)c1ccncc1` [isoniazid]: the inhibition at 1000 µM on AcCATPO [1] is about 90%.

Consider `O=c1cc(CO)occ1O` [kojic acid], for which the “% decrease at 1 mM” value at AcCATPO [2] is listed as ~ 15%.

As to `NC(=S)Nc1ccccc1` [phenylthiocarbamide], the “% inhibition at 1 mM” value on AcCATPO [3] is given as “all inhibitors except tropolone, had a significantly inhibitory effect on the monophenolase activity”.

With `O=C(O)c1ccccc1O` [salicylic acid], the “% decrease at 1 mM” value on AcCATPO [4] was under 25%.

As to `CCN(CC)C(=S)S` [sodium diethyldithiocarbamate], the “% loss of activity at 1 mM” value is listed as ~ 99% at AcCATPO [5] and ~ 80% at AcCATPO [6].

For `O=c1cccccc1O` [tropolone], the “% increase of activity at 1 mM” value is on record as ~ 25% at AcCATPO [7] and ~ 55% on AcCATPO [8].

B1: AcCATPO (Amaranthus cruentus) (protein)
chain: T1 sequence (A0A2Z0PTH5 1-492)
notes: native, purified from red-violet leaves by native-PAGE gel slice; homotrimer ca. 170 kDa, subunit ca. 58 kDa; cDNA encodes 492 residues; peptides GPILLEDYHLIEK, APGVQTPVIVR, FSTVIHER, ENNFKEPGER, TFAYADTHR
On to B1, for which, in “purified protein [9]”, the Michaelis-Menten constant (Km) was found to be 600 µM, the maximal velocity (Vmax) was 0.75 µM/min, the turnover number (kcat) was 0.36 s⁻¹ and the catalytic efficiency (kcat/Km) came to 600 M⁻¹ s⁻¹. Further, in “purified protein [10]”, the Km is 200 µM, the maximum rate (Vmax) was determined as 0.079 µM/min, the kcat is 0.04 s⁻¹ and the kcat/Km turned out to be 200 M⁻¹ s⁻¹.
